In ChEMBL document CHEMBL1201862, “PubChem BioAssay data set” (2004):
The source made the active and inactive calls.

Assays:
[1] = biological target: Glyceraldehyde-3-phosphate dehydrogenase (Homo sapiens, UniProt P04406)
[2] = biological target: T1, Alkaline phosphatase, tissue-nonspecific isozyme (Homo sapiens, UniProt P05186); assay: potency against alkaline phosphatase TNAP – biochemical, luminescent, dose response, SAR follow-up (AID 1056)
T1 sequence (P05186 whole entry): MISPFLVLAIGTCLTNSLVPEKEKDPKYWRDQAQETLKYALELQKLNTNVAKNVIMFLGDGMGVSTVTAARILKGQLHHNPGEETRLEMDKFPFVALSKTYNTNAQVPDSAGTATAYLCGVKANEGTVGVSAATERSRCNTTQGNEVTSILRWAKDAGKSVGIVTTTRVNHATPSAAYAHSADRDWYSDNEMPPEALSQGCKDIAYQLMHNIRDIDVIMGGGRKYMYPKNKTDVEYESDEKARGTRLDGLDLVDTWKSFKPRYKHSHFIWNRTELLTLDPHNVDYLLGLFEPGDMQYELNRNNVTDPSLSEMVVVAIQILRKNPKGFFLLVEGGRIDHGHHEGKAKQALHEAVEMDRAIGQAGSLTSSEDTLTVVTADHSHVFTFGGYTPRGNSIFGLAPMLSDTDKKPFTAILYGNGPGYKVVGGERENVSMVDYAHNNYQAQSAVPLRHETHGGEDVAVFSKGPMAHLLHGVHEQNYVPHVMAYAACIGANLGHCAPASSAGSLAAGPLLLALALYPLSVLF

[3] = Luminescence Cell-Based Dose Retest to Confirm Inhibitors of Cancer Stem Cells. [Related pubchem assays (depositor defined):AID2717, AID2721]; assay type: functional; details: Homo sapiens
[4] = HEK-293T viability loss after treatment – luminescence, T-cell screen hits, cytotoxicity control for TCR NF-kB inhibitor project, dose response (AID 489026); assay type: functional, cell-based;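 note: cells exposed to compound about 14 hours before the viability readout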
Nonstructural protein 1 = Nonstructural protein 1 (Influenza A virus, UniProt Q194T2); assay type: functional, Influenza A virus (A/California/07/2009(H1N1))
Sequence of Nonstructural protein 1 (Q194T2 whole entry): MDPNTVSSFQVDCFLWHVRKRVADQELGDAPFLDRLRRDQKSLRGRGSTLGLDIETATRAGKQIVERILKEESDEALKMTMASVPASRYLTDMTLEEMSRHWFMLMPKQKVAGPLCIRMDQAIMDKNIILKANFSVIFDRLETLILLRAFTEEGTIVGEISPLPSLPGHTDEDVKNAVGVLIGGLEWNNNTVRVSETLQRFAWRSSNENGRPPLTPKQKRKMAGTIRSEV

INS1 = assay: INS-1E survival protection against cytokine death – cell-based, luminescence, retest, dose response (AID 449756); assay type: functional; details: Rattus norvegicus;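 note: cell death triggered by IL-1 beta plus TNF-alpha plus IFN-gamma mixture; protective hits raise ATP signal compared with cytokine alone wells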
[5] = reduction of Shn3 3'UTR-driven luciferase in osteoblasts – cell-based, Clone20 osteoblasts, firefly luciferase, cherry-picked, dose response (AID 624132); assay type: functional;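 note: firefly luciferase luminescence from reporter carrying the Shn3 3'UTR in osteoblasts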
[6] = loss of viability in HepG2 cells – cell-based, CellTiter-Glo, cherry-picked, cytotoxicity control for Shn3 inhibitor project, dose response (AID 624134); assay type: functional
[7] = non-specific 3'UTR reporter inhibition in Clone20-Shn3RL – cell-based, Renilla luciferase, cherry-picked, counter-screen for Shn3 inhibitor project, dose response (AID 624133); assay type: functional
[8] = biological target: T2, High affinity choline transporter 1 (Homo sapiens, UniProt Q9GZV3); assay: human choline transporter blockers, potency – cell-based, 5-point CRC, membrane potential dye, dose response (AID 504840); assay type: functional
T2 sequence (Q9GZV3 whole entry): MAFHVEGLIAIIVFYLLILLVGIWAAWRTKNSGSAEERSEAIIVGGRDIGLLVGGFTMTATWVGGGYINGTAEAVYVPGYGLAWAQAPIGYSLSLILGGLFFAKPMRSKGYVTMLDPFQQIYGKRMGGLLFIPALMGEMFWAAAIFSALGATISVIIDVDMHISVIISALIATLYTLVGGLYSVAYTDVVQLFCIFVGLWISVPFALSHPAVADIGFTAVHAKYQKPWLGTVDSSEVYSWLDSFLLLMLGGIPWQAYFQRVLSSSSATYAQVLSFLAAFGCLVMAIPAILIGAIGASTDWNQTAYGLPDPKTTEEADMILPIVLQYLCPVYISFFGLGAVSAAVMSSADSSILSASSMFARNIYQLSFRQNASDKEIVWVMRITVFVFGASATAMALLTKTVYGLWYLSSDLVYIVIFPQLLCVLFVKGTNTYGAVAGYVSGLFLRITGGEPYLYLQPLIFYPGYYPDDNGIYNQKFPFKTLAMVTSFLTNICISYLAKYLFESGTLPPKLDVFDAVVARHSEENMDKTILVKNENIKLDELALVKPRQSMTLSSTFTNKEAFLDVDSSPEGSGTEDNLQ

[9] = biological target: T3, RNA-binding protein pos-1 (Caenorhabditis elegans, UniProt G5EF15); assay: disruptors of C. elegans POS-1 RNA interaction – biochemical, fluorescence polarization, dose response (AID 1964);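 note: purified POS-1 fused to maltose binding protein made in E. coli; potency of compounds blocking POS-1 binding to fluorescent RNA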
T3 sequence (G5EF15 whole entry): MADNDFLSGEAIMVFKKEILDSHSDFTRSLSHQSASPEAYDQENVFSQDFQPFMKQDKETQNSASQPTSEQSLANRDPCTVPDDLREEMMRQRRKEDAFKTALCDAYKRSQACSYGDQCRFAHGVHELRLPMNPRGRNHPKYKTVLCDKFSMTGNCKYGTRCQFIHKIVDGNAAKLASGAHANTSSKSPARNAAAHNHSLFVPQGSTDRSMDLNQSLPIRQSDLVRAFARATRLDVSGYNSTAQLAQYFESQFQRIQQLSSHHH

[10] = biological target: T4, Zinc finger protein mex-5 (Caenorhabditis elegans, UniProt Q9XUB2); assay: potency of MEX-5 RNA-binding blockers – biochemical, C. elegans, fluorescence polarization, dose response (AID 1960)
T4 sequence (Q9XUB2 whole entry): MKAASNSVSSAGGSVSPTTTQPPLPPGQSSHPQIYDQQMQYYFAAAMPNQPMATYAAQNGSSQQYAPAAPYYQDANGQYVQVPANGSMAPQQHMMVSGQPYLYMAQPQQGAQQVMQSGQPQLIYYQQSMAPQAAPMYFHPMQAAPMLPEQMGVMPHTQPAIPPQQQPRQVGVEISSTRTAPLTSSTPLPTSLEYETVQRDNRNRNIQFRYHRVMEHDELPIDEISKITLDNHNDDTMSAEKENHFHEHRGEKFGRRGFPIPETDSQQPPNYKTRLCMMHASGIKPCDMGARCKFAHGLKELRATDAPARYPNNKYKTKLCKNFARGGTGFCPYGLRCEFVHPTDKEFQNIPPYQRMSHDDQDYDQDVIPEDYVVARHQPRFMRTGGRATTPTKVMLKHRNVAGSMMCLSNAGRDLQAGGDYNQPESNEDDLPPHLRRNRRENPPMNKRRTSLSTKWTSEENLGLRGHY

[11] = biological target: T5, Endoribonuclease toxin MazF (Escherichia coli K-12, UniProt P0AE70); assay: activation of MazEF endoribonuclease cleavage – biochemical, fluorescence, single-stranded RNA substrate, uHTS hits, dose response (AID 588481); assay type: functional
T5 sequence (P0AE70 whole entry): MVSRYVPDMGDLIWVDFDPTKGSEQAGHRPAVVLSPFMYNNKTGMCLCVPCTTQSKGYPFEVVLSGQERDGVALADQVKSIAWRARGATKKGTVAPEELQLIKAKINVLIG

[12] = biological target: T5, Endoribonuclease toxin MazF; assay: substrate-only fluorescence increase artefacts – biochemical, single-stranded RNase substrate, counter-screen for MazEF activator project, dose response (AID 588502); assay type: functional
[13] = HEK-293T cell viability reduction – luminescence, B-cell screen hits, cytotoxicity control for BCR NF-kB inhibitor project, dose response (AID 489021); assay type: functional, cell-based;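 note: HEK-293T cells carrying an NF-kB luciferase reporter; cells exposed to compound for about 14 hours before viability readout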
BJ [14] = assay: BJ-TERT fibroblast viability loss – cell-based, RAS-independent, luminescence, dose response (AID 1933); assay type: functional; details: Homo sapiens
BJ [15] = assay: cells; assay type: functional, cell-based; details: Homo sapiens
BJ [16] = assay: BJ-TERT-LT-ST fibroblast viability loss – cell-based, RAS-independent, luminescence, dose response (AID 1935); assay type: functional; details: Homo sapiens;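 note: BJ fibroblasts immortalized with TERT plus LT and ST oncogenes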
[17] = DRD fibroblast viability loss – cell-based, non-viral oncogenic, luminescence, dose response (AID 1934); assay type: functional; details: Homo sapiens
[18] = THP-1 cell cytotoxicity, dose response, cytotoxicity control for non-replicating M. tuberculosis project (AID 489025); assay type: functional
[19] = HepG2 cell cytotoxicity, dose response, cytotoxicity control for non-replicating M. tuberculosis project (AID 489018); assay type: functional; details: Mycobacterium tuberculosis
[20] = Vero E6 cell cytotoxicity, dose response, cytotoxicity control for non-replicating M. tuberculosis project, secondary assay (AID 492998); assay type: functional, VeroE6; details: Vero C1008
cells [21] = assay type: functional
[22] = test system: Streptococcus sp. 'group A'; assay: Streptococcus pyogenes SK(-)GAS viability under kanamycin – luminescence, BacTiterGlo, confirmation, counter-screen for streptokinase expression inhibitor project, dose response (AID 1900); assay type: functional, organism-based
cells [23] = assay type: functional, cell-based
Streptokinase A = biological target: T6, Streptokinase A (Streptococcus pyogenes serotype M1, UniProt P10520); assay: viability-normalized secreted streptokinase activity reduction – plasminogen activation absorbance, OD405, dose response (AID 1914); assay type: functional, Streptococcus pyogenes M1 GAS;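 note: secreted streptokinase activity via plasminogen activation per viability signal from cell pellet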
T6 sequence (P10520 whole entry): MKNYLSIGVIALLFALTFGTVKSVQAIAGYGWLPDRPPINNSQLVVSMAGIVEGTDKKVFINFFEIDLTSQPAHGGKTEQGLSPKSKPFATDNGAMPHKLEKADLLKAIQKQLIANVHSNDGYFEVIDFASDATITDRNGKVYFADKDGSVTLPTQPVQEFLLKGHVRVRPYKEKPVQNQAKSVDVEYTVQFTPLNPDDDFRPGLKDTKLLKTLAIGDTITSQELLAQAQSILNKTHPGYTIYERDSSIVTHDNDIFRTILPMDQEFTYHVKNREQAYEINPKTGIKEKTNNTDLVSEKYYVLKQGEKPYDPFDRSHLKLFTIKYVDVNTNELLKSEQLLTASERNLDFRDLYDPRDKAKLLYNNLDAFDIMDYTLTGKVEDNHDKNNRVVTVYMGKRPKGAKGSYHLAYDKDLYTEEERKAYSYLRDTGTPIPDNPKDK

cells [24] = assay type: functional, cell-based; remark: listed apart in the source
Streptococcus = assay: GAS UMAA2166 growth inhibition – luminescence, BacTiterGlo, counter-screen for streptokinase expression inhibitor project, dose response (AID 1915); assay type: functional, organism-based;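 note: potency for reduction of bacterial viability or growth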
HEK293 = assay: EBV LMP1 TES2 canonical NF-kB signalling blockers – cell-based, HEK293, luciferase, cherry-pick, dose response (AID 588343); assay type: functional; details: Homo sapiens

Sequence of Glyceraldehyde-3-phosphate dehydrogenase (P04406 whole entry): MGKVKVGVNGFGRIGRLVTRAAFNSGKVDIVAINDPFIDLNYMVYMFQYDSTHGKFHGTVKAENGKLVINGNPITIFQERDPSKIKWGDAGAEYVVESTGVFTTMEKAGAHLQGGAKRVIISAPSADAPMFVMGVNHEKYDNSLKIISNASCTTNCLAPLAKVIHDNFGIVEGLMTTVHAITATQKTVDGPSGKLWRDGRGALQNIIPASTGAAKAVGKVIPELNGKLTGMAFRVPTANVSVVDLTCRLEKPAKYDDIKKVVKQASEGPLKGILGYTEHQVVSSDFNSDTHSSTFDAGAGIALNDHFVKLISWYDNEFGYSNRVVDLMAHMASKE

SMILES: CCOc1ccc(S(=O)(=O)Nc2nc3ccccc3nc2Cl)cc1
- IC50 [1]: > 100 µM (not active)
- IC50 [2]: > 100 µM (inactive)

SMILES: Cc1ccnc2c1ccc1c(C)ccnc12
- AC50 [3]: 1.54 µM (active)
- IC50 [4]: > 80 µM (inactive)
- IC50 (Nonstructural protein 1): 0.472 µM (active)
- AC50 (INS1): 1.92 µM (active)
- AC50 [5]: 0.857 µM (active)
- AC50 [6]: > 70 µM (inactive)
- AC50 [7]: > 70 µM (inactive)

SMILES: Cn1nc(C(=O)O)cc1-c1ccc(F)cc1
- IC50 [1]: > 100 µM (not active)
- IC50 [2]: > 100 µM (inactive)

SMILES: CC(C)(C)C(=O)Oc1cccc(Nc2ncnc3ccccc23)c1
- IC50 [8]: 13.8 µM (active)

SMILES: CCOc1cccc(C2C(C(=O)c3ccc(C)o3)=C(O)C(=O)N2c2nccs2)c1 (stereo not given)
- EC50 [9]: 1.41 µM (inconclusive)
- EC50 [10]: 1.27 µM (active)
- EC50 [11]: 16.9 µM (active)
- EC50 [12]: > 99 µM (inactive)

SMILES: C=CCN1C(=O)NC(=O)/C(=C(/CC)NC(C)c2ccccc2)C1=O (stereo not given)
- IC50 [13]: > 80 µM (inactive)
- IC50 [8]: 1.91 µM (active)

SMILES: Cc1n[nH]c(C)c1CCCCOc1ccccc1[N+](=O)[O-]
- IC50 [8]: 12.6 µM (active)

SMILES: Cc1cc(S(=O)(=O)c2ccc([N+](=O)[O-])cn2)ccc1Br
- EC50 (BJ [14]): 3.26 µM (active)
- EC50 (BJ [15]): 17.6 µM (active)
- EC50 (BJ [16]): 17 µM (active)
- EC50 [17]: 6.93 µM (inconclusive)
- CC50 [18]: 12.2 µM (active)
- AC50 [3]: 1.86 µM (active)
- CC50 [19]: 18 µM (active)
- CC50 [20]: 13.6 µM (active)
- IC50 (cells [21]): 0.68 µM (active)
- AC50 [5]: 3.69 µM (active)
- AC50 [6]: 21.4 µM (active)
- AC50 [7]: 17.5 µM (active)

SMILES: CCCCOc1ccc(OCCCC)c2c1NC1(N2)C(=O)N(C(C)=O)c2ccccc21
- EC50 [11]: > 99 µM (inactive)
- EC50 [12]: > 99 µM (inactive)

SMILES: Cn1nc(C(F)(F)F)c(-c2ccccc2)c1NC(=O)c1cccnc1
- IC50 [8]: 13.2 µM (active)

SMILES: COc1ccc(S(=O)(=O)Nc2cnc3ccccc3c2)c(OC)c1
- IC50 [1]: > 100 µM (not active)
- IC50 [2]: 19.5 µM (active)

SMILES: c1ccc(CN2CCN=C2c2cccnc2)cc1
- IC50 [1]: > 100 µM (not active)
- IC50 [2]: > 100 µM (inactive)

SMILES: CCCc1cc(C(=O)N/N=C/c2ccc(CC)s2)c2ccccc2n1
- IC50 [4]: > 80 µM (inactive)

SMILES: CCCCNC(=O)/C(C#N)=c1\s/c(=C\c2ccccc2OC(F)F)c(=O)n1CCCOC
- EC50 [11]: > 99 µM (inactive)
- EC50 [12]: 88.5 µM (inactive)

SMILES: CN(C)c1ccc(/C=N/NC(=O)c2cnc3ccccc3c2)cc1
- EC50 [11]: > 99 µM (inactive)
- EC50 [12]: 26.4 µM (inactive)

SMILES: CCOc1cccc(/C=N/Nc2ccc(S(=O)(=O)N(CC)CC)cn2)c1O
- EC50 [22]: 6.87 µM (active)
- EC50 (BJ [14]): 2.86 µM (active)
- EC50 (cells [23]): > 350 µM (not active)
- EC50 (Streptokinase A): > 150 µM (not active)
- EC50 (BJ [15]): 4.12 µM (active)
- EC50 (cells [24]): 49.6 µM (active)
- EC50 (BJ [16]): 7.7 µM (active)
- EC50 [17]: 3.94 µM (active)
- EC50 (Streptococcus): 9.29 µM (active)
- IC50 [4]: > 80 µM (inactive)
- AC50 (HEK293): 4.85 µM (active)
- AC50 (INS1): 1.12 µM (active)
